Laboratory results: article PMC7415757, “Monocrotaline-induced liver toxicity in rat predicted by a combined in vitro physiologically based kinetic modeling approach” (Archives of Toxicology, 2020)
Where two headings read alike, the source gives them in different places.

Assays:
primary rat hepatocytes [1] = assay: WST-1 cytotoxicity assay with primary rat hepatocytes; assay type: cell-based, rat (Sprague–Dawley); settings: primary rat hepatocytes
Method: The monocrotaline-induced liver toxicity was tested in vitro using the WST-1 assay which measures the formazan formation by the metabolically active cells from WST-1. Pooled cryopreserved plateable male rat (Sprague–Dawley) hepatocytes (RTCP10™) were thawed and seeded in accordance with the manufacturer’s protocol. Briefly, cells were seeded in 96-well plates (Greiner bio-one, Alphen aan den Rijn, The Netherlands) at a concentration of 5 × 10^5 cells/ml to give 1.25 × 10^4 cells/well and incubated at 37 °C, 5% CO2 in a humidified atmosphere for 6 h to allow cell adherence. […] The solvent DMSO (0.5% (v/v) final concentration in exposure medium) was used as a negative control and triton X (final concentration 1% (v/v) in exposure medium) served as a positive control in all cytotoxicity assays. After exposure for 24 h, 5 μl (1:20 dilution) WST-1 reagent was added to each well and plates were incubated for an additional 1 h. Then, the plate was shaken at 1000 rpm for 1 min, and absorbance was measured at 440 nm (background absorbance at 620 nm was subtracted) using a SpectraMax M2 (Molecular Devices, Sunnyvale, USA).
Data are presented as mean values ± SE from three independent experiments with three different batches of rat hepatocytes. The cell viability was expressed as percentage of the solvent control, with the solvent control set at 100%. The obtained concentration–response curves for hepatotoxicity were fitted with a symmetrical sigmoidal model (Hill slope) which was further used to derive IC50 values using log [inhibitor] vs. normalized response using GraphPad Prism software (version 5.00 for Windows, GraphPad software, San Diego, USA).

[2] = ref Chen et al. [2018]; cited from earlier work
primary rat hepatocytes [3] = settings: same model system; ref Chen et al. [2018]; read-out: EC50 cell viability; cited from earlier work
[4] = ref Chen et al. [2018], cited from earlier work
[5] = tested on: human liver cell line HepaRG; settings: in vitro γH2AX induction potency, ref Louisse et al. ([2019]); cited from earlier work
[6] = ref Chen et al. [2018], cited from earlier work; remark: listed apart in the source
[7] = Substrate depletion in incubations with pooled rat liver microsomes; assay type: in vitro ADME, rat (Sprague–Dawley); settings: liver microsomes versus intestinal microsomes
Method: After 5 min of pre-incubation in a shaking water bath at 37 °C, the reactions were started by the addition of 1 mM NADPH. The reactions were carried out for 1 h and 2 h for liver and intestinal microsomes, respectively. For each incubation, a corresponding control incubated in the absence of NADPH was included by adding buffer instead of NADPH. To stop the metabolic conversion, 100 µl of ice-cold methanol was added and the sample was put on ice, then centrifuged at 5000 × g for 20 min at 4 °C using a microcentrifuge (CT15RE, VWR, Leuven, Belgium). Supernatants were diluted 200 times in 90% (v/v) acetonitrile and transferred to LC–MS vials. LC–MS analysis was performed using a Shimadzu Nexera XR LC-20AD SR UPLC system in tandem with a Shimadzu LCMS-8040 mass spectrometer (Shimadzu, Kyoto, Japan). From each incubation, 1 µl of supernatant was loaded onto a Luna Omega polar C18 100A LC column (1.6 µm 100 × 2.1 mm, Phenomenex) fitted with a FP polar precolumn (Phenomenex), using a flow rate of 0.3 ml/min. The temperature was set at 40 °C and 5 °C for column and sample, respectively. The mobile phase consisted of ultrapure water (solvent A) and acetonitrile (solvent B) both containing 0.1% (v/v) formic acid. The gradient began with 100% solvent A (0% B) for 1 min to wash away unwanted salts, followed by a linear gradient from 0 to 5% B till 8 min and a further increase to 100% B in 2 min, keeping the elution at 100% B for 0.5 min, then the column was set back to the starting conditions and equlibrated for 3.4 min before the next injection. […] For all incubations, three independent replicates were performed.
The ratio of Vmax and Km was calculated as the in vitro catalytic efficiency (kcat) expressed in […]. […] The rat liver weight of 8.5 g and small intestine weight of 3.5 g (see Table 1) (Brown et al. [1997]) were used to scaled the in vivo kcat values to values expressed in ml/min/tissue.

[8] = ref Merz and Schrenk ([2016]); cited from earlier work
[9] = ref Chen et al. [2018]; cited from earlier work; remark: listed apart in the source

SMILES	times more toxic than monocrotaline in vitro (primary rat hepatocytes [1])	Tissue/blood partition coefficient, fat (PF) [2]	Tissue/blood partition coefficient, liver (PL) [2]	Tissue/blood partition coefficient, richly perfused tissue (PR) [2]	Tissue/blood partition coefficient, slowly perfused tissue (PS) [2]	Tissue/blood partition coefficient, small intestine (PI) [2]	EC50 (primary rat hepatocytes [3])	Km ([4]; intestine)	potency group [5]	Km ([6]; liver)	further results
C/C=C(/C)C(=O)O[C@H]1CCN2CC=C(COC(=O)[C@@](O)([C@H](C)OC)C(C)(C)O)[C@H]12 [Lasiocarpine]	35.7	2.44	0.88	0.88	0.48	0.88	10.9 µM	23.4 µM	group 1	19.5 µM	–
C=C1C/C(=C/C)C(=O)O[C@@H]2CCN3CC=C(COC(=O)[C@@]1(O)CO)[C@H]23 [Riddelliine]	20.7	0.44	0.77	0.77	0.43	0.77	6.3 µM	221 µM	group 1	75.7 µM	in vivo scaled kcat (ml/min tissue) liver relative to intestine [7]: 253 times; pRPF (provisional relative potency factor) [8]: ~1.0; Scaled Vmax ([4]; intestine): 2.06 nmol/min/g tissue; Scaled kcat ([4]; intestine): 0.009 ml/min/g tissue; Vmax ([4]; intestine): 0.1 nmol/min/mg microsomal protein; Scaled kcat ([4]; small intestine weight 3.5 g): 0.03 ml/min/ tissue; pRPF (provisional relative potency factor) [5]: 1; Scaled kcat ([6]; liver weight 8.5 g): 8.2 ml/min/ tissue; Scaled Vmax ([6]; liver): 73.5 nmol/min/g tissue; Scaled kcat ([6]; liver): 0.97 ml/min/g tissue; Vmax ([6]; liver): 2.1 nmol/min/mg microsomal protein; Ka derived from Eq. 5 [9]: 1.17 h⁻¹
